For series [1], the target named is T1, 17β-HSD3 (Homo sapiens, UniProt P37058).
T1 construct: expressed in transfected cells; host or cells: human 293-EBNA cells, stably transfected
T1 sequence (P37058 1-310): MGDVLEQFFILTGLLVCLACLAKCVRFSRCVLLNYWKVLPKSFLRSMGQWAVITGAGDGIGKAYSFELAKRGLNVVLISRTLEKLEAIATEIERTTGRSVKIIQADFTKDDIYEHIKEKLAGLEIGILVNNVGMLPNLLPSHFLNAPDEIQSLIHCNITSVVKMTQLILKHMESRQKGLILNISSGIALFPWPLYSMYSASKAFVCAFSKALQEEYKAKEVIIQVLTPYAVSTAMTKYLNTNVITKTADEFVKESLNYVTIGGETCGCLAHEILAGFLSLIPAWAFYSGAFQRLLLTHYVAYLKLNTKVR
As to the kind of experiment: Assay for 17β-HSD3 activity (TLC assay) in 293-EBNA cells stably transfected with 17β-HSD3. The series is classed as cell-based. As to conditions: for inhibition at 10 µM: 293-EBNA. Here is the method:
Human 293-EBNA cells stably transfected with 17β-HSD3 were plated at 50,000 cells/well in 24 well plates in complete growth medium. After 48 h 2–3 nM [^3H]-androstenedione in assay medium (500 mL DMEM medium with 5 mL 100 × L-glutamine and 5 mL 7.5% sodium bicarbonate solution) was added with or without test compound at 1.5 mL/well (triplicate), and the cells incubated at 37 °C. Two hours later 1 mL medium was removed from each well and placed in a 125 × 16 mm glass test tube containing 25 µL of recovery solution (5000 dpm ^14C-testosterone and 25 µg unlabelled testosterone […], and the tubes vortexed at high speed for 2 × 30 s. After the samples had settled into two phases, they were snap-frozen in a dry ice/methanol bath. The upper organic phase was decanted into 75 × 12 mm tubes and evaporated to dryness under an airstream using a sample concentrator (TECHNE) at 40 °C. The samples were resuspended in ether (8 drops, then a further 3), spotted onto ca 60 F254 20 cm × 20 cm TLC plates and separated using a 4:1 v/v dichloromethane: ethyl acetate mobile phase. After drying the plates, the major spots were marked under a UV lamp, cut out and placed in individual scintillation vials containing 0.5 mL methanol. These were then shaken lightly and allowed to stand for 15 min before adding 10 mL of EcoScintA (scintillation fluid) to each tube along with 0.5 mL assay medium and counted in a scintillation spectrometer (Beckman, High Wycombe, Bucks, UK), using a program for duel [^3H/^14C] isotopes. The number of cells/well was then counted using a Coulter10 counter (Beckman). The inhibitory activity of the test compounds was then assessed by calculating the amount of product formed correcting for crossover between isotope counts, recovery, dilution and non-enzymatic degradation fmol/hr/million cells) with and without inhibitor (% inhibition).

Series [2] in a line: Compound toxicity, MTS/Alamar Blue proliferation assay, PC-3. Conditions: human, PC-3 (AR-) prostate cancer cells; PC3 (AR-); read-out: Cytotoxicity IC50 (µM) PC3 (AR-). The series is classed as cell-based. The procedure:
(§1) AR+ (LNCaP) and AR- (PC-3) PCa cell lines were used as standard lines to determine the cytotoxicity of HSD3 inhibitor compounds. Toxicity was assessed over 96 h in 96 well plates using the standard MTS/Alamar Blue proliferation assay and over longer durations by cell counting methodologies.

The nature of series [3]: Compound toxicity, MTS/Alamar Blue proliferation assay, LNCaP. Format: cell-based. Conditions: human, LNCaP (AR+) prostate cancer cells; read-out: Cytotoxicity IC50 (µM) LNCaP (AR+). Here is the method:
as §1

[4] abbreviates: 10 μM, TLC assay, mean of at least two measurements, typically SD ±5%.
The mark [5] stands for this setting: TLC assay, 293-EBNA[HSD3] cells, read-out: IC50 (17β-HSD3).

The term inhibition denotes the share of the control response that was lost under treatment. A high value points to a response far below the control. What is called IC50 is the concentration needed to halve the response being measured. Usually melting point stands for the temperature of the solid-liquid transition. For orientation: % Inhibition means the drop in the measured response relative to a control, in per cent. Low readings indicate little suppression, high ones strong suppression.

“Also recorded” adds a separate entry of the source. Like-named read-outs stand apart in the source and are kept apart here. Where only a bound is given, the exact number is not on record here.

Consider `CC(=O)N1CCC(Nc2ccccc2CN(C(C)=O)c2ccccc2Oc2ccc(Cl)cc2)CC1` [Compound 22, N-[2-(1-Acetyl-piperidin-4-ylamino)-benzyl]-N-[2-(4-chloro-phenoxy)-phenyl]-acetamide], for which, in series [1] (setting [4]), 10 µM produced 55% inhibition.
Regarding `CC(=O)Nc1ccccc1C(C)Nc1ccccc1Oc1ccc(Cl)cc1` (stereo not shown) [Compound 29, N-(2-(1-[2-(4-Chloro-phenoxy)-phenylamino]-ethyl)-phenyl)-acetamide], the IC50 at 96 h in series [2] amounted to 18.3 µM; in series [3], 14.6 µM. Further, the IC50 in series [1] (setting [5]) turned out to be 76 nM.
`COc1cc(CNc2ccccc2Oc2ccc(Cl)cc2Cl)c(NC(C)=O)cc1OC` [Compound 6, N-(2-([2-(2,4-Dichloro-phenoxy)-phenylamino]-methyl)-4,5-dimethoxy-phenyl)-acetamide] showed a melting point of 128 to 131 °C. Further, the “17β-HSD3 inhibitory activity in words” value in series [1] is “activity was lost; also recorded: inactive”. This compound displayed an inhibition at 10 µM in series [1] (setting [4]) of under 20%.
For the compound `CC(=O)Nc1ccccc1CN(C)c1ccccc1Oc1ccc(Cl)cc1` [Compound 16, N-[2-(([2-(4-Chloro-phenoxy)-phenyl]-methyl-amino)-methyl)-phenyl]-acetamide], in series [1], the “17β-HSD3 inhibitory activity in words” value is “inactive”. Besides, the inhibition at 10 µM in series [1] (setting [4]) is under 20%.
Compound `CCNc1ccccc1C(C)Nc1ccccc1Oc1ccc(Cl)cc1` (stereo not shown) [Compound 25, N-(2–1-[2-(4-Chloro-phenoxy)-phenylamino]-ethyl-phenyl)-ethylamine] registered an inhibition at 10 µM in series [1] (setting [4]) of 20 to 60%.
Take `CC(=O)N(C)c1ccccc1CNc1ccccc1Oc1ccc(Cl)cc1` [Compound 14, N-(2-([2-(4-Chloro-phenoxy)-phenylamino]-methyl)-phenyl)-N-methyl-acetamide]: in series [1] (setting [5]), the IC50 amounted to 460 nM.
In series [1] (setting [4]), `C=CCC(Nc1ccccc1Oc1ccc(Cl)cc1)c1ccccc1NC(C)=O` (stereo not shown) [Compound 26] showed an inhibition at 10 µM of 20 to 60%. In addition, the IC50 in series [1] (setting [5]) came out at 520 nM.
`CC(=O)N1CCC(C(=O)Nc2cccc(CNc3ccccc3Oc3ccc(Cl)cc3)c2)CC1` [Compound 24, 1-Acetyl-piperidine-4-carboxylic acid (3-[2-(4-chloro-phenoxy)-phenylamino]-methyl-phenyl)-amide]: at 10 µM the inhibition in series [1] (setting [4]) was 97%. Moreover, the IC50 in series [1] (setting [5]) amounted to 1100 nM.
The compound `CC(=O)Nc1ccc(Cl)cc1CNc1ccccc1Oc1ccc(Cl)cc1Cl` [Compound 10, N-(4-Chloro-2-[2-(2,4-dichloro-phenoxy)-phenylamino]-methyl-phenyl)-acetamide] displayed a melting point of 135 to 137 °C. This compound also came in with an inhibition at 10 µM in series [1] (setting [4]) of under 20%.
The compound `CC(=O)Nc1ccccc1C(Cc1ccccc1)Nc1ccccc1Oc1ccc(Cl)cc1` (stereo not shown) [Compound 27, N-(2-(1-[2-(4-Chloro-phenoxy)-phenylamino]-2-phenyl-ethyl)-phenyl)-acetamide] yielded an inhibition at 10 µM in series [1] (setting [4]) of under 20%.
The compound `CC(=O)Nc1ccccc1CNc1ccccc1Oc1ccc(OC(F)(F)F)cc1` [Compound 2, N-(2-([2-(4-Trifluoromethoxy-phenoxy)-phenylamino]-methyl)-phenyl)-acetamide] returned a melting point of 98 to 100 °C. Moreover, the inhibition at 10 µM in series [1] (setting [4]) fell in the range of 60 to 70%.
Taken in the same sequence, the figures for `CC(=O)Nc1ccc(CNc2ccccc2Oc2ccc(Cl)cc2)cc1` [Compound 18, N-(4-([2-(4-Chloro-phenoxy)-phenylamino]-methyl)-phenyl)-acetamide] were 137 to 139 °C and 29%.
Take `CC(=O)Nc1cc2c(cc1CNc1ccccc1Oc1ccc(Cl)cc1)OCO2` [Compound 4, N-(6-[2-(4-Chloro-phenoxy)-phenylamino]-methyl-benzo[1,3]dioxol-5-yl)-acetamide]: the melting point lay in the range of 154 to 156 °C. In addition, in series [1], the “17β-HSD3 inhibitory activity in words” value was “good activity; also recorded: active”. In series [1] (setting [4]), 10 µM produced 86% inhibition. In series [1] (setting [5]), the IC50 came out at 450 nM.
Compound `CC(=O)Nc1ccccc1CNc1cc(F)ccc1Oc1ccc(Cl)cc1` [Compound 3, N-(2-([2-(4-Chloro-phenoxy)-5′-fluoro-phenylamino]-methyl)-phenyl)-acetamide] returned a melting point of 178 to 180 °C. The compound further had an inhibition at 10 µM in series [1] (setting [4]) of 60 to 70%.
The corresponding values for `CC(=O)Nc1cccc(CNc2ccccc2Oc2ccc(Cl)cc2)c1` [Compound 20, N-(3-[2-(4-Chloro-phenoxy)-phenylamino]-methyl-phenyl)-acetamide] are 187 to 190 °C and 53%.
Take `CC(=O)Nc1ccc(Cl)cc1CNc1ccccc1Oc1ccc(OC(F)(F)F)cc1` [Compound 11, N-(4-Chloro-2-[2-(4-trifluoromethoxy-phenoxy)-phenylamino]-methyl-phenyl)-acetamide]: the melting point was 121 to 123 °C. Besides, the “17β-HSD3 inhibitory activity in words” value in series [1] is given as “good activity”.
In the case of `COc1cc(CNc2ccccc2Oc2ccc(Cl)cc2)c(NC(C)=O)cc1OC` [Compound 5, N-(2-[2-(4-Chloro-phenoxy)-phenylamino]-methyl-4,5-dimethoxy-phenyl)-acetamide], the melting point was 117 to 118 °C. Also, the “17β-HSD3 inhibitory activity in words” value in series [1] is “activity was lost; also recorded: inactive”. The same compound showed an inhibition at 10 µM in series [1] (setting [4]) of under 20%.
Regarding “1-[4-(2-[2-(4-Chloro-phenoxy)-phenylamino]-methyl-phenylamino)-piperidin-1-yl]-ethanone [Compound 21]”, the “% Inhibition at 10 μM (17β-HSD3)” value in series [1] (setting [4]) is on record as 36%.
`CCCC(Nc1ccccc1Oc1ccc(Cl)cc1)c1ccccc1NC(C)=O` (stereo not shown) [Compound 28, N-(2-(1-[2-(4-Chloro-phenoxy)-phenylamino]-butyl)-phenyl)-acetamide]: the IC50 in series [1] (setting [5]) amounted to 370 nM.
For the compound `CC(=O)N1Cc2ccccc2CSc2ccccc21` [BMS Dibenzazocine], the IC50 at 96 h is over 50 µM in series [2] and 19.4 µM in series [3]. In addition, the concentration for half-maximal inhibition (IC50) in series [1] (Table 11, read-out: HSD3 Activity (IC50 nM)) worked out at 8.6 nM.
With `CC(=O)Nc1ccccc1CN(C(C)=O)c1ccccc1Oc1ccc(Cl)cc1` [Compound 17, N-(2-Acetylamino-benzyl)-N-[2-(4-chloro-phenoxy)-phenyl]-acetamide], the “17β-HSD3 inhibitory activity in words” value in series [1] is “inactive”. The same compound showed an inhibition at 10 µM in series [1] (setting [4]) of under 20%.
Turning to `CC(=O)Nc1ccc(CNc2ccccc2Oc2ccc(Cl)cc2Cl)cc1` [Compound 19, N-(4-([2-(2,4-Dichloro-phenoxy)-phenylamino]-methyl)-phenyl)-acetamide], the “17β-HSD3 inhibitory activity in words” value in series [1] is “inactive”. In series [1] (setting [4]), this compound showed an inhibition at 10 µM of under 20%.
Regarding `CC(=O)Nc1c(CNc2ccccc2Oc2ccc(Cl)cc2)ccc2ccccc12` [Compound 7, N-(2-[2-(4-Chloro-phenoxy)-phenylamino]-methyl-naphthalen-1-yl)-acetamide], the melting point was in the range of 153 to 155 °C. This compound also came in with an inhibition at 10 µM in series [1] (setting [4]) of under 20%.
As to `CC(=O)Nc1ccc(Cl)cc1CNc1ccccc1Oc1ccc(Cl)cc1` [Compound 9, N-(4-Chloro-2-[2-(4-chloro-phenoxy)-phenylamino]-methyl-phenyl)-acetamide], 10 µM produced 97% inhibition in series [1] (setting [4]). For the same compound, the IC50 in series [1] (setting [5]) was 1900 nM.
Compound `C=CC[C@H](Nc1ccccc1Oc1ccc(Cl)cc1)c1ccccc1NC(C)=O` [Compound 32, S-(+)-N-(2-(1-[2-(4-Chloro-phenoxy)-phenylamino]-but-2-enyl)-phenyl)-acetamide] gave a melting point of 139 to 141 °C. The “17β-HSD3 inhibitory activity in words” value in series [1] is given as “active”. Moreover, in series [1] (setting [5]), the IC50 worked out at 370 nM.
Turning to `CC(=O)Nc1ccc(C)cc1CNc1ccccc1Oc1ccc(Cl)cc1` [Compound 8, N-(2-[2-(4-Chloro-phenoxy)-phenylamino]-methyl-4-methyl-phenyl)-acetamide], the melting point was 138 to 140 °C. This compound also came in with an inhibition at 10 µM in series [1] (setting [4]) of 60 to 70%.
As to `CC(=O)N(C)c1ccccc1CN(C)c1ccccc1Oc1ccc(Cl)cc1` [Compound 15, N-[2-(([2-(4-Chloro-phenoxy)-phenyl]-methyl-amino)-methyl)-phenyl]-N-methyl-acetamide], in series [1], the “17β-HSD3 inhibitory activity in words” value is “weakly active”. The inhibition at 10 µM in series [1] (setting [4]) was 60 to 70%.

The record behind these values is article PMC8659031, “Substituted Aryl Benzylamines as Potent and Selective Inhibitors of 17β-Hydroxysteroid Dehydrogenase Type 3” (Molecules, 2021).
